Data as given in US12195427B2, “MASP-2 inhibitors and methods of use” (priority 2018, dated 2025).
Counter-ions that a name gives are not always drawn.

What was measured:
[1] = test system: Lectin Pathway; experiment: Lectin Pathway Activation Assay in Human Serum (mannan-coated ELISA, C3c detection); format: biochemical; conditions: 1% human serum
Protocol: Microtiter ELISA plate was coated with mannan from Saccharomyces cerevisiae (Sigma-Aldrich, M7504) for overnight at 4° C. in coating buffer [15 mM Na2CO3, 35 mM NaHCO3].

[2] = target: MASP-2 CCP2-SP (Homo sapiens (Human), UniProt O00187); experiment: MASP-2 co-crystallization, X-ray crystallography and structure analysis (H-bonds, van der Waals contacts); set-up: van der Waals contact distance, MASP-2 HIS 483 atom CD2 / van der Waals contact distance, MASP-2 HIS 483 atom NE2 / van der Waals contact distance, SER 654 C to compound atom / van der Waals contact distance, SER 654 O to compound atom / van der Waals contact distance, TRP 655 C to compound atom / van der Waals contact distance, MASP-2 GLY 528 atom CA / van der Waals contact distance TRP 655 atom CZ3 / van der Waals contact distance TRP 655 atom N / van der Waals contact distance TRP 655 atom CE3 / van der Waals contact distance GLY 656 atom C / van der Waals contact distance GLY 656 atom CA / van der Waals contact distance GLY 656 atom O / van der Waals contact distance, MASP-2 TYR 607 atom CD1 / van der Waals contact distance, MASP-2 PRO 606 atom O / d(C3,CA1) / d(CA1,N1)2 / d(H4,O1) / d(H4,O2) / d(O1,O2) / d(CA1,O2) / d(CA6,O1) / d(CA6,O2) / d(CA1,C5) / d(O2,H3) / d(N2,C2) / d(CA5,N2) / d(N2,C4) / d(N2,C6) / d(N2,CA3) / d(N2,O3) / d(O4,H2): unit not given beside the values; conditions: for H-bond distance to MASP-2 ASP 627 atom OD2: ASP 627 OD2; for H-bond distance to MASP-2 GLY 656 atom N: GLY 656 N; for H-bond distance to MASP-2 GLY 656 atom O: GLY 656 O; for H-bond distance to MASP-2 SER 628 atom O: SER 628 O; for H-bond distance to MASP-2 SER 654 atom O: SER 654 O; for H-bond distance to MASP-2 SER 657 atom O: SER 657 O; for van der Waals contact distance, MASP-2 HIS 483 atom CD2 / van der Waals contact distance, MASP-2 HIS 483 atom NE2: Table A2-1; for van der Waals contact distance, MASP-2 amino acid atom to compound atom: ARG 630; for van der Waals contact distance TRP 655 atom CE3: MASP-2 TRP 655 CE3, compound atom in line below; for van der Waals contact distance TRP 655 atom CZ3: MASP-2 TRP 655 CZ3; for van der Waals contact distance TRP 655 atom N: MASP-2 TRP 655 N; for van der Waals contact distance GLY 656 atom C: MASP-2 GLY 656 C; for van der Waals contact distance GLY 656 atom N / van der Waals contact distance SER 657 atom C / van der Waals contact distance GLY 656 atom O: Table A2-14; for van der Waals contact distance GLY 656 atom N: MASP-2 GLY 656 N; for van der Waals contact distance SER 657 atom C: MASP-2 SER 657 C, columns c12-c13 (inferred); for van der Waals contact distance GLY 656 atom O: MASP-2 GLY 656 O;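 on Ligand-pharmacophore element distance, pharmacophore element C2: distance from averaged pharmacophore element to bound ligand; missing value means element absent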;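 on Ligand-pharmacophore element distance, pharmacophore element C3: distance from averaged pharmacophore element to bound ligand; missing value means element absent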;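 on Ligand-pharmacophore element distance, pharmacophore element C4: distance from averaged pharmacophore element to bound ligand; missing value means element absent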;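 on Ligand-pharmacophore element distance, pharmacophore element C5: distance from averaged pharmacophore element to bound ligand; missing value means element absent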
MASP-2 CCP2-SP, sequence (O00187 445-686): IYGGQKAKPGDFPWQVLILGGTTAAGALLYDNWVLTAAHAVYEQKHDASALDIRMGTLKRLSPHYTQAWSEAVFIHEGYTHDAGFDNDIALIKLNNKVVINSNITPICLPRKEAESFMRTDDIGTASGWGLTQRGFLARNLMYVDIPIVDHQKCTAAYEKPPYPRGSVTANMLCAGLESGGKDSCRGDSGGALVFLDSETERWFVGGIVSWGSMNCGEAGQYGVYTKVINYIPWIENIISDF
MASP-2 CCP2-SP, sequence (O00187 364-432 partner): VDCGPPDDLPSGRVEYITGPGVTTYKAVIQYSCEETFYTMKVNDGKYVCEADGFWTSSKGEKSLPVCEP
Method in brief: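 First, CCP2-SP constructs with or without a 6His tag are produced in E. coli. Crystals are then soaked once or twice with inhibitor, cryoprotected in 20% glycerol or frozen directly, and diffracted at synchrotron beamlines. Phasing uses molecular replacement with parts of 1Q3X.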

[3] = target: MASP-2 (CCP1-CCP2-SP) (Homo sapiens (Human), UniProt O00187); experiment: Enzymatic Assay for MASP-2 (fluorogenic substrate); format: biochemical
MASP-2 (CCP1-CCP2-SP), sequence (O00187 445-686): as the sequence (O00187 445-686) above

[4] = Table A5-1 pharmacophore: distance between elements, S2/S1 region
[5] = Table A5-2 pharmacophore distance, S3/S4 region
[6] = Table A7-1, between pharmacophore elements of the bound compound
[7] = Table A7-2, between pharmacophore elements of the bound compound

## Cc1nc(N)ccc1CNC(=O)[C@H](C)NC(=O)[C@H]1C[C@H](Cc2ccc3ccccc3c2)CN1 [compound 1338, (2R,4S)—N—((S)-1-(((6-Amino-2-methylpyridin-3-yl)methyl)amino)-1-oxopropan-2-yl)-4-(naphthalen-2-ylmethyl)pyrrolidine-2-carboxamide]
[1]
  IC50: 50 to 500 nM
[2]; Table A1 (H-Bonds)
  H-bond distance to MASP-2 ASP 627 atom OD2: 3.2
  H-bond distance to MASP-2 GLY 656 atom N: 3.23
  H-bond distance to MASP-2 GLY 656 atom O: 2.78
  H-bond distance to MASP-2 SER 628 atom O: 3.04
  H-bond distance to MASP-2 SER 654 atom O: 2.99
  H-bond distance to MASP-2 SER 657 atom O: 2.93
[2]
  van der Waals contact distance, MASP-2 HIS 483 atom CD2: 3.58
  van der Waals contact distance, MASP-2 HIS 483 atom NE2: 3.82
[2]; Table A2-2
  van der Waals contact distance, MASP-2 ALA 527 atom C: 3.67
[2]; Table A2-3
  van der Waals contact distance, MASP-2 PHE 529 atom CE2: 3.86
[2]; Table A2-9, AA atoms CG, CZ
  van der Waals contact distance, MASP-2 amino acid atom to compound atom: 3.75
[2]; Table A2-11
  van der Waals contact distance, VAL 653 CG1 to compound atom: 3.33
[2]; Table A2-12
  van der Waals contact distance, TRP 655 CA to compound atom: 3.4
[2]; Table A2-13
  van der Waals contact distance TRP 655 atom CE3: 3.83
  van der Waals contact distance TRP 655 atom CZ3: 3.74
  van der Waals contact distance TRP 655 atom N: 3.9
[2]; Table A4-1, element C2
  Ligand-pharmacophore element distance, pharmacophore element C2: 0
[2]; Table A4-1, element C3
  Ligand-pharmacophore element distance, pharmacophore element C3: 0.12
[2]; Table A4-1, element C4
  Ligand-pharmacophore element distance, pharmacophore element C4: 0
[2]; Table A4-1, element C5
  Ligand-pharmacophore element distance, pharmacophore element C5: 0
[2]; Table A4-1, element C6
  Ligand-pharmacophore element distance, pharmacophore element C6: 0
[2]; Table A4-1, element C7
  Ligand-pharmacophore element distance, pharmacophore element C7: 0
[2]; Table A4-1, element CA1
  Ligand-pharmacophore element distance, pharmacophore element CA1: 0.55
[2]; Table A4-1, element CA2
  Ligand-pharmacophore element distance, pharmacophore element CA2: 0.59
[2]; Table A4-1, element CA3
  Ligand-pharmacophore element distance, pharmacophore element CA3: 0
[2]; Table A4-1, element CA4
  Ligand-pharmacophore element distance, pharmacophore element CA4: 1.21
[2]; Table A4-1, element CA5
  Ligand-pharmacophore element distance, pharmacophore element CA5: 0
[2]; Table A4-1, element CA6
  Ligand-pharmacophore element distance, pharmacophore element CA6: 0
[2]; [4]
  d(C3,CA1): 2.88
  d(CA1,N1)2: 1.37
  d(CA1,O1): 4.35
  d(CA1,O2): 3.80
  d(H4,O1): 4.33
  d(H4,O2): 3.75
  d(O1,O2): 3.35
[2]; [5]
  d(N2,CA2): 6.05
  d(O2,H3): 4.29
  d(O2,N2): 2.74
[2]; Table A6-1 pharmacophore angle
  a(C3, CA1, O1): 148.99
  a(CA1, O1, O2): 105.30
  a(O1, O2, H4): 131.78
[2]; Table A6-1 pharmacophore angle, Methyl-amino-pyridine compounds
  a(N1, CA1, O1) b): 173.72
[2]; Table A6-2 pharmacophore angle
  a(O1, O2, H3): 148.03
  a(O1, O2, N2): 141.48
  a(O2, N2, CA2): 157.11
[2]; [6]
  Pharmacophore torsion angle a(C3, CA1, O1, H4): 23.02
  Pharmacophore torsion angle a(H4, O1, O2, H3): 52.11
  Pharmacophore torsion angle a(H4, O1, O2, N2): 140.39
  Pharmacophore torsion angle a(N1, CA1, O1, H4): −3.32
  Pharmacophore torsion angle a(O1, H4, O2, CA1): −85.13
[2]; [7]
  Pharmacophore torsion angle a(O1, O2, N2, CA2): 124.64
  Pharmacophore torsion angle a(O1, O2, N2, CA4): 116.54

## C[C@H](NC(=O)c1cc(-c2ccccc2)c[nH]1)C(=O)NCc1ccc(C(=N)N)cc1 [compound 1030]
[1]
  IC50: 500 to 5000 nM
[2]; Table A1 (H-Bonds)
  H-bond distance to MASP-2 GLY 656 atom N: 3.12
  H-bond distance to MASP-2 GLY 656 atom O: 2.82
  H-bond distance to MASP-2 SER 654 atom O: 2.82
  H-bond distance to MASP-2 SER 657 atom O: 2.91
[2]; Table A1 (H-Bonds), SER 628 OG
  H-bond distance to MASP-2 SER 628 atom OG: 3.17
[2]
  van der Waals contact distance, MASP-2 HIS 483 atom CD2: 3.61
  van der Waals contact distance GLY 656 atom N: 3.78
  van der Waals contact distance SER 657 atom C: 3.82
[2]; Table A2-9 second part, AA atoms N, NE, NH1
  van der Waals contact distance, MASP-2 amino acid atom to compound atom: 3.83
[2]; Table A2-13
  van der Waals contact distance GLY 656 atom C: 3.73
  van der Waals contact distance TRP 655 atom N: 3.81
[2]; Table A2-13, MASP-2 GLY 656 CA
  van der Waals contact distance GLY 656 atom CA: 3.86

## C[C@H](NC(=O)[C@H](N)CCc1ccccc1)C(=O)NCc1ccc(N)nc1 [compound 1007]
[3]
  Ki: < 500 nM
[2]; Table A1 (H-Bonds)
  H-bond distance to MASP-2 ASP 627 atom OD2: 3.27
  H-bond distance to MASP-2 SER 628 atom O: 2.59
  H-bond distance to MASP-2 SER 654 atom O: 2.94
  H-bond distance to MASP-2 SER 657 atom O: 2.88
[2]
  van der Waals contact distance, MASP-2 HIS 483 atom CD2: 3.38
  van der Waals contact distance GLY 656 atom N: 3.71
  van der Waals contact distance GLY 656 atom O: 3.85
  van der Waals contact distance SER 657 atom C: 3.87
[2]; Table A2-3
  van der Waals contact distance, MASP-2 PHE 529 atom CD1: 3.83
  van der Waals contact distance, MASP-2 PHE 529 atom CZ: 3.82
[2]; Table A2-4
  van der Waals contact distance, MASP-2 TYR 607 atom CD1: 3.84
[2]; Table A2-9, AA atoms CG, CZ
  van der Waals contact distance, MASP-2 amino acid atom to compound atom: 3.61
[2]; Table A2-12
  van der Waals contact distance, TRP 655 CA to compound atom: 3.31
[2]; Table A2-13
  van der Waals contact distance GLY 656 atom C: 3.74
  van der Waals contact distance TRP 655 atom CE3: 3.69
  van der Waals contact distance TRP 655 atom CZ3: 3.78

## C[C@H](NC(=O)[C@H]1C[C@H](Cc2ccc(-c3ccccc3)cc2)CN1)C(=O)NCc1cnc2[nH]cc(Cl)c2c1 [compound 1356, (2R,4S)-4-([1,1′-Biphenyl]-4-ylmethyl)-N—((S)-1-(((3-chloro-1H-pyrrolo[2,3-b]pyridin-5-yl)methyl)amino)-1-oxopropan-2-yl)pyrrolidine-2-carboxamide]
[1]
  IC50: 50 to 500 nM

## C[C@H](NC(=O)[C@H]1C[C@@H](c2ccccc2)CCN1)C(=O)NCc1ccc(C(=N)N)cc1 [compound 1230, (2R,4S)—N—((S)-1-((4-Carbamimidoylbenzyl)amino)-1-oxopropan-2-yl)-4-phenylpiperidine-2-carboxamide Dihydrochloride]
[1]
  IC50: < 50 nM

## C[C@H](NC(=O)[C@H]1C[C@@H](c2ccccc2)CN1)C(=O)NCc1ccc2c(N)nccc2c1 [compound 1089]
[3]
  Ki: < 500 nM
[2]; Table A1 (H-Bonds)
  H-bond distance to MASP-2 ASP 627 atom OD2: 2.8
  H-bond distance to MASP-2 GLY 656 atom N: 3.3
  H-bond distance to MASP-2 GLY 656 atom O: 2.82
  H-bond distance to MASP-2 SER 654 atom O: 2.93
  H-bond distance to MASP-2 SER 657 atom O: 2.93
[2]
  van der Waals contact distance, MASP-2 HIS 483 atom CD2: 3.71
  van der Waals contact distance, MASP-2 HIS 483 atom NE2: 3.83
  van der Waals contact distance GLY 656 atom O: 2.95
  van der Waals contact distance SER 657 atom C: 3.86
[2]; Table A2-4
  van der Waals contact distance, MASP-2 PRO 606 atom O: 3.4
[2]; Table A2-12
  van der Waals contact distance, SER 654 O to compound atom: 3.57
[2]; Table A2-13
  van der Waals contact distance TRP 655 atom CE3: 3.59
